Measured values taken from US4087432A, “1H-imidazo(4,5-b)pyridine compounds” (Eli Lilly and Company, priority 1975, dated 1978).

Legend:
Settings in all cases: 8 lbs/acre
Corn = assay: Postemergent injury rating, corn; assay type: in vivo; design: key: injury rating scale, 4 = death
Experimental: (§1) Various of the compounds to be employed as active agent in accordance with the present invention were evaluated for preemergent application to various species of plants. In this evaluation, a soil was prepared consisting of one part masonry sand and one part shredded top soil blended together in a cement mixer. One gallon of this soil was placed in a 25 × 35 cm. galvanized flat and was patted down with a bench brush until level. A three-row marker was used to make 21/2 cm. deep furrows in approximately two-fifths of the flat. Crop seeds consisting of four kernels of corn, five cotton seeds and five soybean seeds were placed in these furrows. A four-row template was then placed on the remaining soil and the indicated approximate numbers of each of the following seeds were planted, one species to each section: foxtail (millet), 80-100 seeds; velvetleaf (40-50 seeds); rough pigweed (150-250 seeds); and large crabgrass (100-150 seeds).
(§2) Sufficient soil was added to cover the entire flat. Thus, the weed seeds were covered to a depth of about 6 mm. and the crop seeds were covered to a depth of about 3 cm.
(§3) In assaying the effect of the composition as preemergent herbicides, a flat prepared as above, taken either on the day of planting or on the next day, was placed in a chamber equipped with a turntable and an air exhaust. The herbicidal composition, either a spray-type emulsion or a wettable powder, was applied to the flat with a modified DeVilbiss atomizer hooked to an air source. Twelve and one-half milliliters of the composition under test were applied to each flat either on the day of planting or the succeeding day. Injury ratings and observations as to type of injury were made eleven to twelve days after treatment. The injury rating scale used was as follows:
(§4) 4--death When more than one determination was carried out at a given rate, an average value was calculated for the injury rating. Each compound evaluated was formulated as a spray by one of the following procedures. In one method the particular compound was wetted by grinding in a mortar with one part of polyoxyethylene sorbitan monolaurate. Five hundred parts of water were added slowly to the resultant creamy paste to give an aqueous dispersion with a surfactant concentration of 0.2 percent. This dispersion was entirely satisfactory for spray application. In a second procedure the compound was dissolved in one volume of acetone, and the acetone solution was diluted with nineteen volumes of water containing 0.1 percent of polyoxyethylene sorbitan monolaurate.
(§5) Representative compounds of the present invention were evaluated for postemergent application to plants including corn and several weed species. The evaluation was carried out in accordance with the procedures of Examples 49-52 except that the test solutions were applied about 9-12 days after the preparation and seeding of the flats.

Pigweed = assay: Postemergent injury rating, pigweed; assay type: in vivo, rough pigweed; design: key: injury rating scale, 4 = death
Experimental: as §1, §2, §3, §4, §5

Foxtail = assay: Postemergent injury rating, foxtail; assay type: in vivo, foxtail (millet); design: key: injury rating scale, 4 = death
Experimental: as §1, §2, §3, §4, §5

Velvet Leaf = assay: Postemergent injury rating, velvetleaf; assay type: in vivo
Experimental: as §1, §2, §3, §4, §5

Crabgrass = assay: Postemergent injury rating, crabgrass; assay type: in vivo, large crabgrass; design: key: injury rating scale, 4 = death
Experimental: as §1, §2, §3, §4, §5

`Nc1c(Br)nc2nc(C(F)(F)F)n(O)c2c1Br` [5,7-dibromo-6-amino-1-hydroxy-2-(trifluoromethyl)-1H-imidazo(4,5-b)pyridine] was tested, and the “Injury Rating, Corn” value (Corn) was 1, the “Injury Rating, Pigweed” value (Pigweed) was 3 and the “Injury Rating, Foxtail” value (Foxtail) was 3. For the same molecule, the “Injury Rating, Velvet Leaf” value (Velvet Leaf) was 2 and the “Injury Rating, Crabgrass” value (Crabgrass) was 3.

With `On1c(C(F)(F)F)nc2nc(Br)c(Cl)c(Br)c21` [5,7-dibromo-6-chloro-1-hydroxy-2-(trifluoromethyl)-1H-imidazo(4,5-b)pyridine] the “Injury Rating, Corn” value (Corn) was 1, the “Injury Rating, Pigweed” value (Pigweed) was 4 and the “Injury Rating, Foxtail” value (Foxtail) was 4. The “Injury Rating, Velvet Leaf” value (Velvet Leaf) was 3 and the “Injury Rating, Crabgrass” value (Crabgrass) was 4.
